Broadly, the IC50 is the concentration needed to halve the response being measured.

Read-outs that look alike come from different tables or passages of the source. Square brackets hold non-standard residues; d marks the D form. Ends that are not written are not given here. Peptide text beside a SMILES is read from it. Cit = NC(=O)NCCC[C@H](N)C(=O)O

One assay deals with T1, HLA-DRB1*01:01 (Homo sapiens, UniProt P01903+P01911, A100R/D57E/F55L/F60I/F76Y/I96L/L162R/M171V/P40L/Q125E/R42F/V115G/Y59C).
T1 construct: EBV transformed homozygous cell lines were used as sources of MHC molecules; endogenous in cells; host or cells: EBV transformed homozygous cell lines
Briefly: HLA class II peptide binding, inhibition of radiolabeled peptide binding to purified MHC.

In a further assay the target is T2, HLA-DRB1*04:01 (Homo sapiens, UniProt P01903+P01911, A100K/A169T/F76Y/I96L/K127E/L162R/M171V/N62H/P40V/Q125Y/R42H/S133A/S149N/S66Y/V115G/V209L/W38E).
T2 construct: EBV transformed homozygous cell lines were used as sources of MHC molecules; endogenous in cells; host or cells: EBV transformed homozygous cell lines
Described as above.

The mark [1] stands for this setting: citrullinated 15-mer (X), purified MHC, inhibition of radiolabeled peptide binding, dash = IC50 >40,000 nM, read-out: DRB1*01:01 binding capacity, Cit peptide (IC50 nM).
The mark [2] stands for this setting: citrullinated 15-mer (X), purified MHC, inhibition of radiolabeled peptide binding, dash = IC50 >40,000 nM, read-out: DRB1*04:01 binding capacity, Cit peptide (IC50 nM).
Where [3] appears, read: read-out: DRB1*01:01 binding capacity, WT peptide (IC50 nM).
Setting [4] is: read-out: DRB1*04:01 binding capacity, WT peptide (IC50 nM).
Where [5] appears, read: wild-type (unmodified Arg) 15-mer peptide, purified HLA-DRB1*01:01, read-out: DRB1*01:01 binding capacity, WT peptide (IC50 nM).
The mark [6] stands for this setting: wild-type (unmodified Arg) 15-mer peptide, purified HLA-DRB1*04:01, read-out: DRB1*04:01 binding capacity, WT peptide (IC50 nM).
The mark [7] stands for this setting: citrullinated 15-mer peptide (X = citrulline), purified HLA-DRB1*01:01, read-out: DRB1*01:01 binding capacity, Cit peptide (IC50 nM).
The mark [8] stands for this setting: citrullinated 15-mer peptide (X = citrulline), purified HLA-DRB1*04:01, read-out: DRB1*04:01 binding capacity, Cit peptide (IC50 nM).

Regarding `CC(C)C[C@H](NC(=O)[C@H](CCC(N)=O)NC(=O)[C@H](CC(=O)O)NC(=O)[C@@H](NC(=O)[C@H](CCC(N)=O)NC(=O)[C@H](CCCNC(=N)N)NC(=O)[C@H](CCCNC(=N)N)NC(=O)[C@H](CC(C)C)NC(=O)[C@@H](N)CCC(=O)O)C(C)C)C(=O)N[C@H](C(=O)N[C@@H](CC(N)=O)C(=O)N[C@@H](CC(=O)O)C(=O)N[C@@H](CCCCN)C(=O)N[C@@H](C)C(=O)N[C@@H](CCCNC(N)=O)C(=O)O)[C@@H](C)O` [ELRRQVDQLTNDKAX] (H-ELRRQVDQLTNDKA[Cit]-OH), the IC50 was 1160 nM on HLA-DRB1*01:01 (setting [1]) and 8090 nM on HLA-DRB1*04:01 (setting [2]).
`CSCC[C@H](NC(=O)[C@H](CCC(=O)O)NC(=O)[C@H](CCC(=O)O)NC(=O)[C@@H](N)CCC(=O)O)C(=O)N[C@@H](CCCNC(=N)N)C(=O)N[C@@H](CCC(=O)O)C(=O)N[C@@H](CC(C)C)C(=O)N[C@@H](CCCNC(=N)N)C(=O)N[C@@H](CCCNC(N)=O)C(=O)N[C@@H](CCC(N)=O)C(=O)N[C@H](C(=O)N[C@@H](CC(=O)O)C(=O)N[C@@H](CCC(N)=O)C(=O)N[C@@H](CC(C)C)C(=O)N[C@H](C(=O)O)[C@@H](C)O)C(C)C` [EEEMRELRXQVDQLT] (H-EEEMRELR[Cit]QVDQLT-OH): the IC50 worked out at 686 nM on HLA-DRB1*01:01 (setting [1]) and 1280 nM at HLA-DRB1*04:01 (setting [2]).
In the case of NYIDKVRFLEQQNKI [Vimentin 116 WT], the IC50 came out at 72 nM at HLA-DRB1*01:01 (setting [3]) and 824 nM at HLA-DRB1*04:01 (setting [4]).
Regarding KAGEKGLPGAPGLRG [Collagen 616 WT], the IC50 at HLA-DRB1*01:01 (setting [5]) was 363 nM; on HLA-DRB1*04:01 (setting [6]) it was above 40000 nM.
`CC(C)C[C@H](NC(=O)[C@H](CO)NC(=O)[C@H](Cc1ccc(O)cc1)NC(=O)[C@@H](NC(=O)[C@H](CCCNC(N)=O)NC(=O)[C@@H](NC(=O)[C@H](CO)NC(=O)[C@@H](NC(=O)[C@@H](NC(=O)[C@@H](NC(=O)[C@H](Cc1ccc(O)cc1)NC(=O)[C@H](CO)NC(=O)[C@H](CCCNC(=N)N)NC(=O)[C@H](CO)NC(=O)[C@@H](N)CO)C(C)C)[C@@H](C)O)[C@@H](C)O)[C@@H](C)O)[C@@H](C)O)C(=O)O` [SSRSYVTTSTXTYSL] (H-SSRSYVTTST[Cit]TYSL-OH): the figures for the IC50 on HLA-DRB1*01:01 (setting [1]) and at HLA-DRB1*04:01 (setting [2]) were 85 nM and 109 nM, respectively.
Consider `N=C(N)NCCC[C@H](NC(=O)[C@H](CCC(=O)O)NC(=O)CNC(=O)[C@@H]1CCCN1C(=O)[C@H](Cc1ccccc1)NC(=O)CNC(=O)[C@H](CCCNC(N)=O)NC(=O)[C@H](CCC(=O)O)NC(=O)CNC(=O)[C@H](CCCNC(=N)N)NC(=O)[C@@H]1CCCN1C(=O)CN)C(=O)NCC(=O)N[C@@H](CO)C(=O)N1CCC[C@H]1C(=O)O` [GPRGEXGFPGERGSP] (H-GPRGE[Cit]GFPGERGSP-OH), for which the values for the IC50 on HLA-DRB1*01:01 (setting [7]) and at HLA-DRB1*04:01 (setting [8]) were 18000 nM and above 40000 nM, respectively.
For `CC[C@H](C)[C@H](NC(=O)[C@@H](NC(=O)[C@H](CCC(N)=O)NC(=O)CNC(=O)[C@H](CC(=O)O)NC(=O)[C@H](CCCNC(N)=O)NC(=O)[C@@H](NC(=O)[C@H](CCC(=O)O)NC(=O)[C@@H](NC(=O)[C@@H](NC(=O)[C@H](CCCCN)NC(=O)[C@@H](NC(=O)[C@H](CC(C)C)NC(=O)[C@H](CC(C)C)NC(=O)[C@@H](N)[C@@H](C)O)[C@@H](C)CC)[C@@H](C)O)C(C)C)[C@@H](C)O)C(C)C)C(=O)O` [TLLIKTVETXDGQVI] (H-TLLIKTVET[Cit]DGQVI-OH), the half-inhibitory concentration (IC50) at HLA-DRB1*01:01 (setting [7]) was 2120 nM; on HLA-DRB1*04:01 (setting [8]), 2260 nM.
With VEVERDNLAEDIMRL [Vimentin 171 WT], the IC50 on HLA-DRB1*01:01 (setting [3]) was determined as 12500 nM; at HLA-DRB1*04:01 (setting [4]), 16400 nM.
On to `C[C@H](NC(=O)CNC(=O)[C@H](C)NC(=O)[C@@H]1CCCN1C(=O)CNC(=O)[C@@H](NC(=O)[C@H](CCCNC(N)=O)NC(=O)CNC(=O)[C@H](CCCNC(=N)N)NC(=O)[C@@H](N)CCC(=O)O)[C@@H](C)O)C(=O)N[C@@H](C)C(=O)NCC(=O)N[C@@H](C)C(=O)N[C@@H](CCCNC(=N)N)C(=O)NCC(=O)O` [ERGXTGPAGAAGARG] (H-ERG[Cit]TGPAGAAGARG-OH), for which the values for the IC50 at HLA-DRB1*01:01 (setting [7]) and on HLA-DRB1*04:01 (setting [8]) were 3910 nM and above 40000 nM, respectively.
LPGARGLTGRPGDAG [Collagen 556 WT]: the figures for the IC50 on HLA-DRB1*01:01 (setting [5]) and on HLA-DRB1*04:01 (setting [6]) were 851 nM and above 40000 nM, respectively.
Consider DGLAGPKGAPGERGP [Collagen 521 WT], for which the values for the IC50 on HLA-DRB1*01:01 (setting [5]) and on HLA-DRB1*04:01 (setting [6]) were 2240 nM and 36900 nM, respectively.

(Values after paper PMC5421785, “Citrullination only infrequently impacts peptide binding to HLA class II MHC” (PLoS ONE, 2017).)
